Results: patent publication US12528773B2, “Non-lysosomal glucosylceramidase inhibitors and uses thereof” (ALECTOS THERAPEUTICS INC., priority 2020, dated 2026)
pIC50: −log10 of the molar value.

Key:
Assay type in all cases: biochemical
[1] = biological target: T1, GBA2 (Homo sapiens (Human), UniProt Q9HCG7); assay: Inhibition of GBA2 in cell lysate (4-methylumbelliferone glucopyranoside substrate); conditions: HEK293T-overexpressing GBA2 cellular homogenate, pH 5.5; read-out: GBA2 IC50;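 also: homogenate of stably transfected HEK293T cells pre-treated with a GCase inhibitor, test compound preincubated 5 min at 37 °C, substrate reaction 20 min at 37 °C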
[2] = system: rat intestinal alpha-glucosidases; assay: Inhibition of rat intestinal alpha-glucosidases (rat intestinal lysate, glucose detection); conditions: compound concentration 25 μM, sucrose as substrate
Description: Assay for Determination of Inhibition of Rat Intestinal Alpha-Glucosidases
Various concentrations of test compounds were prepared in DMSO and then diluted into buffer consisting of 100 mM citric acid, 200 mM disodium phosphate, pH 6.0. Rat intestinal acetone powder (Sigma) was dissolved to 12.5 mg/mL in assay buffer and sonicated in an ice bath, centrifuged, and the supernatant was collected, aliquoted and stored at −20° C. until use. On the day of the assay, the rat intestinal lysate was diluted to 6.25 mg/mL (sucrose reactions) and 2.1 mg/ml (maltose reactions) in assay buffer. The final reaction solutions for sucrose contained 2.1 mg/mL rat intestinal lysate, 40 mM sucrose, 50 or 25 μM of test compound, and 3.3% DMSO. The final reaction solution for maltose contained 0.69 mg/mL rat intestinal lysate, 10 mM maltose, 50 or 25 μM of test compound, and 3.3% DMSO. The reaction was initiated by the addition of substrate (sucrose or maltose) and allowed to proceed at 37° C. for 20 min to assess rat intestinal alpha-glycosidase activities. The reaction was stopped by addition of 20 μL of 2 M Tris-HCl, pH 7.0. The glucose produced during the reaction was detected using a commercial Amplex Red glucose detection kit from Thermo Fisher. For a full plate, the Amplex Red detection mixture was prepared by mixing 35 μL glucose oxidase, 35 μL horseradish peroxidase and 35 μL Amplex Red into 3395 μL 1× Amplex Red detection buffer. A total of 30 μL of detection mixture was added to each well. Fluorescence was measured in kinetic mode on a Biotek Synergy H4 plate reader at a wavelength of 573 nm for excitation and 610 nm for emission for 15 min and quantified from the data at 10 min. Incubations without added rat intestinal lysate were used to correct for the background amount of glucose present in the samples. Incubations without added test compound were used to define maximal enzyme activity. Percent inhibition of rat intestinal alpha-glucosidases was determined by dividing the amount of glucose detected in the presence of test compound by the amount of glucose detected in the maximal enzyme activity wells. All conditions were analyzed in triplicate. […] The final reaction solutions were the same as described above for the Amplex Red Detection kit. After a 20 min reaction time at 37° C., 100 μL of hexokinase glucose reagent was added to all test wells except for the no enzyme added control wells and no test compound added wells. The plate was incubated for a further 15 min at room temperature and the absorbance was read at 340 nm on a Biotek Synergy H4 plate reader. The percent inhibition of rat intestinal alpha-glucosidases was determined in a similar manner as described above.

[3] = biological target: T1, GBA2; assay: Binding specificity for GBA2 over other molecules, Ki or IC50 ratio
Description: In some embodiments, one or more of the compounds according to the invention may specifically bind a GBA2. In alternative embodiments, one or more of the compounds according to the invention may specifically bind the active site of a GBA2. […] In alternative embodiments, one or more of the compounds according to the invention may specifically bind the human non-lysosomal glucosylceramidase (GBA2) over the human lysosomal glucosylceramidase (GCase) and/or the human cytosolic glucosylceramidase (GBA3). In alternative embodiments, one or more of the compounds according to the invention may specifically bind the human non-lysosomal glucosylceramidase (GBA2) over the human glucosylceramide synthase (GCS). In alternative embodiments, one or more of the compounds according to the invention may specifically bind the human non-lysosomal glucosylceramidase (GBA2) over an intestinal alpha-glucosidase, where the intestinal alpha-glucosidase may be a sucrase-isomaltase or a maltase-glucoamylase.

T1 sequence (Q9HCG7 whole entry): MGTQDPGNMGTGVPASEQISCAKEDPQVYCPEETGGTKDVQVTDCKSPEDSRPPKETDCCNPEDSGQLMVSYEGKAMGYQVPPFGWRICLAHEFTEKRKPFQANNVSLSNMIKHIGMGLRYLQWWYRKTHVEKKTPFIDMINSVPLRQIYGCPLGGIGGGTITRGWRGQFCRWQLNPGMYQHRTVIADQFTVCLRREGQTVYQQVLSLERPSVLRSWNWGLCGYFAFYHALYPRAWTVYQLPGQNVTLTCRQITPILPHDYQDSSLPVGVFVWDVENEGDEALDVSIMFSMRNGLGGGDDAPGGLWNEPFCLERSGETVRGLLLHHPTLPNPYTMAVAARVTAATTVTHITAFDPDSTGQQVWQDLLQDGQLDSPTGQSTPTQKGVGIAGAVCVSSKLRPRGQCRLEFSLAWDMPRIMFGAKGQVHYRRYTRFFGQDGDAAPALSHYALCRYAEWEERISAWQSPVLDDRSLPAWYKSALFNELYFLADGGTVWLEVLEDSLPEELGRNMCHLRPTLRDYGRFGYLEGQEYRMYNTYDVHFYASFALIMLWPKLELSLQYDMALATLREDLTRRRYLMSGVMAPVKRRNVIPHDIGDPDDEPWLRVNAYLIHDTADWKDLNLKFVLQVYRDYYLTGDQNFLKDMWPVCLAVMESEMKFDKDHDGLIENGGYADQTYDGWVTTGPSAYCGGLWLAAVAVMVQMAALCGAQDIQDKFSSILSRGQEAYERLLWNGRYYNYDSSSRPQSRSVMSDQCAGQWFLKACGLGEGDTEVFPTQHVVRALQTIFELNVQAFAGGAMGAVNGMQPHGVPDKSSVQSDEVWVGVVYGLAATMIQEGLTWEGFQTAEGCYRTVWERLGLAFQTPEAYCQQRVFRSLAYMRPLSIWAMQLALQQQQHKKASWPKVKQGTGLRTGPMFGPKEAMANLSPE

Compound | pIC50 [1] | binding specificity, IC50(other molecule)/IC50(GBA2) or Ki ratio [3] | rat α-glu. (% inhib.) [2] [%]
O[C@H]1[C@H](O)CN(C[C@H]2CC[C@H](C(F)(F)F)CC2)C[C@@H]1O [Example 1, (3S,4R,5R)-1-(((1r,4R)-4-(trifluoromethyl)cyclohexyl)methyl)piperidine-3,4,5-triol] | > 7.00 | enhanced binding specificity | 0
O[C@H]1[C@H](O)CN(C[C@H]2CC[C@@H](C(F)(F)F)CC2)C[C@@H]1O [Example 2, (3S,4R,5R)-1-(((1s,4S)-4-(trifluoromethyl)cyclohexyl)methyl)piperidine-3,4,5-triol] | > 7.00 | enhanced binding specificity | 4
CC(C)(F)[C@H]1CC[C@@H](CN2C[C@@H](O)[C@H](O)[C@@H](O)C2)CC1 [Example 3, (3S,4R,5R)-1-(((1s,4S)-4-(2-fluoropropan-2-yl)cyclohexyl)methyl)piperidine-3,4,5-triol] | > 7.00 | enhanced binding specificity | 1
O[C@H]1[C@H](O)CN(CCc2c(F)ccc(Cl)c2F)C[C@@H]1O [Example 7, (3S,4r,5R)-1-(3-chloro-2,6-difluorophenethyl)piperidine-3,4,5-triol] | > 7.00 | enhanced binding specificity | 0
O[C@H]1[C@H](O)CN(CCc2c(F)cc(OCC3CC3)cc2F)C[C@@H]1O [Example 9, (3S,4r,5R)-1-(4-(cyclopropylmethoxy)-2,6-difluorophenethyl)piperidine-3,4,5-triol] | > 7.00 | enhanced binding specificity | 0
O[C@H]1[C@H](O)CN(CCc2c(F)cc(N3CCCC3)cc2F)C[C@@H]1O [Example 10, (3S,4r,5R)-1-(2,6-difluoro-4-(pyrrolidin-1-yl)phenethyl)piperidine-3,4,5-triol] | > 7.00 | enhanced binding specificity | 7
CCCCOc1ccc(CN2C[C@@H](O)[C@H](O)[C@@H](O)C2)cc1 [Example 197, (3S,4r,5R)-1-(4-butoxybenzyl)piperidine-3,4,5-triol] | > 7.00 | – | 5
CCCCOc1cc(F)c(CN2C[C@@H](O)[C@H](O)[C@@H](O)C2)c(F)c1 [Example 199, (3S,4r,5R)-1-(4-butoxy-2,6-difluorobenzyl)piperidine-3,4,5-triol] | 4.60 to 6.00 | – | 5

Second part, led by results:

pIC50 [1] | binding specificity, IC50(other molecule)/IC50(GBA2) or Ki ratio [3] | Compound | rat α-glu. (% inhib.) [2] [%]
> 7.00 | – | CCCCCOc1ccc(CN2C[C@@H](O)[C@H](O)[C@@H](O)C2)cc1 [Example 198, (3S,4r,5R)-1-(4-(pentyloxy)benzyl)piperidine-3,4,5-triol] | 12
> 7.00 | – | O[C@H]1[C@H](O)CN(Cc2ccc(OCC3CC3)cc2)C[C@@H]1O [Example 200, (3S,4r,5R)-1-(4-(cyclopropylmethoxy)benzyl)piperidine-3,4,5-triol] | 7
> 7.00 | – | O[C@H]1[C@H](O)CN(Cc2ccc(Oc3ccccc3)cc2)C[C@@H]1O [Example 201, (3S,4r,5R)-1-(4-phenoxybenzyl)piperidine-3,4,5-triol] | 3
> 7.00 | – | O[C@H]1[C@H](O)CN(Cc2ccc(-c3ccccc3)cc2)C[C@@H]1O [Example 202, (3S,4r,5R)-1-([1,1′-biphenyl]-4-ylmethyl)piperidine-3,4,5-triol] | 11
6.00 to 7.00 | – | O[C@H]1[C@H](O)CN(Cc2ccc(N3CCCCC3)cc2)C[C@@H]1O [Example 204, (3S,4r,5R)-1-(4-(piperidin-1-yl)benzyl)piperidine-3,4,5-triol] | 4
4.60 to 6.00 | – | O[C@H]1[C@H](O)CN(Cc2cccs2)C[C@@H]1O [Example 205, (3S,4r,5R)-1-(thiophen-2-ylmethyl)piperidine-3,4,5-triol] | 4
